Laboratory results from patent publication US20110098216A1 (REGEN THERAPEUTICS PLC, priority 2009, published 2011).

What was measured:
[1] = test system: polychromatic erythrocytes in bone marrow of male and female ICR mice; conditions: definitive study, male and female mice, 24 or 48 h after dose; CP 50 mg/kg; Kastenbaum-Bowman Tables
Method: (§1) The assay was performed in two phases. The first phase, pilot toxicity study, was designed to assess toxicity of the test article and set dose levels for the definitive study. The second phase, the definitive micronucleus study, was designed to evaluate the potential of the test article to increase the incidence of micronucleated polychromatic erythrocytes in bone marrow of male and female ICR mice.
(§2) Phosphate buffered saline (PBS) was used as the test article vehicle. The test article was a workable suspension in PBS at 100 mg/mL, the maximum concentration prepared and tested in this study. […] In both phases of the study, test or control articles were administered at a dose volume of 20 mL/kg body weight via a single oral gavage dose.
(§3) The definitive micronucleus study consisted of seven groups, each containing 5 male and female ICR mice. […] An additional group of 5 male and 5 female ICR mice were treated with 2000 mg/kg to be used as possible replacement animals for the high dose in the event of mortality. […] Bone marrow cells [polychromatic erythrocytes (2000 PCEs/animal)] collected 24 and 48 hours after treatment were examined microscopically for the presence of micronuclei.

[2] = test system: Chinese hamster ovary (CHO) cells; assay: Chromosome aberration assay in CHO cells; assay type: cell-based; conditions: preliminary toxicity assay, any dose level up to 5000 μg/mL, all three exposure groups
Method: A preliminary toxicity test was performed to establish the dose range for the chromosome aberration assay. The chromosome aberration assay was used to evaluate the clastogenic potential of the test article. The dosing solution concentrations were adjusted to compensate for the protein content (13.6%) of the test article using a correction factor of 7.35.
In order to evaluate the toxic effect of lactose alone on the test system, α-Lactose monohydrate was tested as reference article at the same percentage of lactose as in the highest test article dose formulation in the preliminary toxicity assay. McCoy's media (complete medium for the non-activated test system and serum-free medium for the S9-activated test system) were the solvents of choice based on the solubility of the test article and compatibility with the target cells. […] The reference article was soluble in McCoy's complete and serum-free media at the dose level tested in the preliminary toxicity assay.
In the preliminary toxicity assay, the maximum dose tested was 5000 μg/mL. […] The reference article was soluble in complete medium and serum-free medium at 31.76 mg/mL at the beginning and conclusion of the treatment period. […]

[3] = Solubility and precipitation in water / on plates (mutation assay); assay type: physicochemical; conditions: initial toxicity-mutation assay with lactose, up to 31765 μg per plate
Method: (§4) The dose levels tested were 1.5, 5.0, 15, 50, 150, 500, 1500 and 5000 μg per plate.
(§5) The dose levels tested were 50, 150, 500, 1500 and 5000 μg per plate.

male and female ICR mice = conditions: mouse, in vivo
Method: as §1, §2, §3

[4] = test system: Salmonella typhimurium tester strains TA98, TA100, TA1535 and TA1537 and Escherichia coli tester strain WP2 uvrA; assay: Bacterial Reverse Mutation Assay (plate incorporation method); conditions: initial toxicity-mutation assay with lactose, maximum dose 31765 μg per plate
Method: as §4
Based on the findings of the initial toxicity-mutation assay, the maximum dose plated in the confirmatory mutagenicity assay was 5000 μg per plate.
as §5

O=P1(N(CCCl)CCCl)NCCCO1 (centres unmarked) [CP, cyclophosphamide monohydrate]
incidence of micronucleated polychromatic erythrocytes relative to vehicle control [1]: significant increase

O.OC[C@H]1O[C@@H](O[C@H]2[C@H](O)[C@@H](O)[C@@H](O)O[C@@H]2CO)[C@H](O)[C@@H](O)[C@H]1O [α-Lactose monohydrate]
substantial toxicity (at least 50% cell growth inhibition relative to solvent control) [2]: not observed
precipitate [3]: Neither precipitate
mortality and clinical signs (male and female ICR mice): no clinical signs
toxicity [4]: Neither precipitate nor appreciable toxicity
